Test results published in patent US20170087113A1, “METHODS FOR TREATING UREA CYCLE DISORDERS TO PREVENT HYPERAMMONEMIC CRISES BY CONTROLLING BLOOD AMMONIA LEVELS” (HORIZON THERAPEUTICS, LLC, priority 2014, published 2017).

Tested on: UCD patients
Assay: Occurrence of hyperammonemic crises (HAC): 12 months pre-enrollment on NaPBA versus 12-month GPB treatment (studies HPN-100-005, -007, -012)
Assay type: in vivo, human
Excerpt: Data from four short-term switchover (SO) studies and three 12-month safety extension (SE) studies in adult and pediatric UCD patients were included in the analyses; all have been previously described. […] Most patients completing these protocols plus additional patients (a total of 100 of whom 49 were pediatric) were enrolled into safety extension studies and received GPB for 12 months (Diaz 2013), (Mokhatarani 2013), (Berry 2014).
All protocols and informed consents were reviewed and approved by the Investigational Review Board of each participating institution prior to initiation. […] In all studies, patients received GPB three times daily (or more frequently in small children to match their prior NaPBA schedule) at a daily dose equivalent to their previously prescribed NaPBA dose. […] Fasting ammonia and glutamine levels were analyzed as a predictor of HACs during long-term treatment.
During the 12 month studies, blood samples for ammonia and glutamine analyses were collected monthly and information on HACs was recorded. […] Ammonia and glutamine concentrations were measured by an accredited hospital laboratory at each study site and ammonia values were normalized to a standard range of 9 to 35 μmol/L.
Data for 100 UCD subjects from three clinical trials (HPN-100-005, HPN-100-007, and HPN-100-012) were analyzed to evaluate the correlation between fasting ammonia levels and HAC (Table 1). Patients were treated for 12 months with GPB during the study. There was an almost equal split in the number of subjects who were adults (51%) and children (49%), defined as age<18 years at the time of enrollment. In this population, 30 patients had experienced a total of 54 HACs in the 12 months prior to the study and 19 patients experienced a total of 27 HACs during the study (Table 1). Baseline ammonia was defined as the subject's fasting ammonia level taken either at month zero or at the screening visit depending on which study the subject was enrolled in and whether the subject was enrolled in previous studies.

[1] = all patients N=100, pre-study (NaPBA) or during study (GPB)
[2] = study 005, N=17, pre-study (NaPBA) or during study (GPB)
[3] = study 007, N=60, pre-study (NaPBA) or during study (GPB)
[4] = study 012, N=23, pre-study (NaPBA) or during study (GPB)
[5] = subjects ages 6 years or higher, total N=77, pre-study (NaPBA) or study (GPB)

In the case of sodium phenylbutyrate [NaPBA], the “12-month incidence of HAC” value (adult (≧18 years)) is reported as 0.832, the “Proportion of patients who experienced an HAC” value (“Proportion” below) (adult (≧18 years)) is reported as 17.7% and the “# of HA events (total no. of HAC)” value (all patients N=100, 12 months pre-study (NaPBA) or during study (GPB)) is reported as 54. For the same substance, the “N with ≧1 HA events (number of patients with HAC)” value [1] was 30, the “Proportion” value [1] was 30.0% and the “12-month incidence of HAC” value (female) was 0.712. The “Proportion” value (female) was 23.9%, the “12-month incidence of HAC” value (male) was 0.516 and the “Proportion” value (male) was 42.4%. The “12-month incidence of HAC” value (non-white) was 0.660, the “Proportion” value (non-white) was 36.8% and the “12-month incidence of HAC” value (pediatric (<18 years)) was 0.338. The “Proportion” value (pediatric (<18 years)) was 42.9%, the “# of HA events” value [2] was 8 and the “N with ≧1 HA events” value [2] was 5. The “# of HA events” value [3] was 17, the “N with ≧1 HA events” value [3] was 10 and the “# of HA events” value [4] was 29. The “N with ≧1 HA events” value [4] was 15, the “# of HACs” value [5] was 25 and the “Subjects with 1 or more HACs” value [5] was 15. The “12-month incidence of HAC” value (white) was 0.564 and the “Proportion” value (white) was 28.4%.
